What all share (type): functional
The subject of assay [1] is Pseudomonas aeruginosa. The experiment in a line: Antimicrobial activity against Pseudomonas aeruginosa SR24 in presence of human apo-transferrin by broth microdilution method.
Assay [2] relates to Pseudomonas aeruginosa. The experiment in a line: Antimicrobial activity against AmpC overproducing Pseudomonas aeruginosa SR24-12 in presence of human apo-transferrin by broth microdilution method. A general note: Dilution methods test growth across graded concentrations, often in twofold steps.
For assay [3], the system named is Pseudomonas aeruginosa. The experiment in a line: Antimicrobial activity against IMP-1 producing Pseudomonas aeruginosa SR27001 in presence of human apo-transferrin by broth microdilution method.
Assay [4] has as its system Pseudomonas aeruginosa. Kind of assay: Antimicrobial activity against VIM-2 producing Pseudomonas aeruginosa SBRKM-28 in presence of human apo-transferrin by broth microdilution method.
Assay [5] has as its system Pseudomonas aeruginosa. Kind of assay: Antimicrobial activity against IMP-1 producing Pseudomonas aeruginosa SR27060 in presence of human apo-transferrin by broth microdilution method.
Assay [6] has as its system Pseudomonas aeruginosa. Kind of assay: Antimicrobial activity against Pseudomonas aeruginosa 27060deltaR1 harboring deletion of R1 plasmid in presence of human apo-transferrin by broth microdilution method.
The subject of assay [7] is Stenotrophomonas maltophilia. The experiment in a line: Antimicrobial activity against L-1 producing Stenotrophomonas maltophilia SR21970 in presence of human apo-transferrin by broth microdilution method.
Assay [8] deals with Acinetobacter baumannii. The experiment in a line: Antimicrobial activity against OXA-23/OXA-58 producing Acinetobacter baumannii SR27323 in presence of human apo-transferrin by broth microdilution method.
Assay [9] relates to Klebsiella pneumoniae. The experiment in a line: Antimicrobial activity against KPC-2 producing Klebsiella pneumoniae ATCC BAA-1705 in presence of human apo-transferrin by broth microdilution method.
Assay [10] concerns Escherichia coli. The experiment in a line: Antimicrobial activity against SHV-4 producing Escherichia coli ATCC BAA-200 in presence of human apo-transferrin by broth microdilution method.

Where only a bound is given, the exact number is not on record here.

In the case of `C[N+]1(CC2=C(C(=O)[O-])N3C(=O)[C@@H](NC(=O)/C(=N\OC[C@H](NC(=O)c4ccc(O)c(O)c4Cl)C(=O)O)c4csc(N)n4)[C@H]3SC2)CCCC1`, the MIC turned out to be 0.125 µg/mL in assay [1]; 1 µg/mL in assay [2]; 4 µg/mL in assay [3]; 0.125 µg/mL in [4]; 4 µg/mL in assay [5]; 2 µg/mL in assay [6]. For the same compound, in [7], the MIC was found to be 8 µg/mL.

Turning to `CC(C)(O/N=C(\C(=O)N[C@@H]1C(=O)N2C(C(=O)[O-])=C(C[n+]3ccc(-c4ccc(O)c(O)c4Cl)cc3)CS[C@H]12)c1csc(N)n1)C(=O)O` (stereo in doubt), the minimal inhibitory concentration (MIC) in [3] is greater than 64 µg/mL; in [4] it was 0.25 µg/mL; in assay [5], 16 µg/mL; in [7], 1 µg/mL.

Turning to `CC(C)(O/N=C(\C(=O)N[C@@H]1C(=O)N2C(C(=O)[O-])=C(C[N+]3(CCNC(=O)c4ccc(O)c(O)c4Cl)CCCC3)CS[C@H]12)c1nsc(N)n1)C(=O)O`, the MIC in [1] came out at 0.25 µg/mL; in assay [2] it was 0.25 µg/mL; in [3] it was 1 µg/mL; in [4], 0.25 µg/mL; in assay [5], 1 µg/mL; in assay [6], 0.25 µg/mL. The MIC in assay [7] is 0.25 µg/mL.

`CC(C)(O/N=C(\C(=O)N[C@@H]1C(=O)N2C(C(=O)[O-])=C(C[n+]3cccc4c3CCCN4C(=O)c3ccc(O)c(O)c3Cl)CS[C@H]12)c1csc(N)n1)C(=O)O`: the MIC in assay [3] came out at 4 µg/mL; in assay [4] it was 0.125 µg/mL; in assay [5], 4 µg/mL; in assay [7] it was 0.5 µg/mL.

Consider `CC(C)(O/N=C(\C(=O)N[C@@H]1C(=O)N2C(C(=O)[O-])=C(C[N+]3(Cc4nnc(-c5ccc(O)c(O)c5Cl)o4)CCCC3)CS[C@H]12)c1csc(N)n1)C(=O)O`, for which the MIC is 0.5 µg/mL in assay [1]; 0.5 µg/mL in [2]; 2 µg/mL in [3]; 0.125 µg/mL in [4]; 2 µg/mL in assay [5]; 0.5 µg/mL in [6]. The MIC in [7] was determined as 0.5 µg/mL.

Turning to `C[C@@H](C[N+]1(CC2=C(C(=O)[O-])N3C(=O)[C@@H](NC(=O)/C(=N\OC(C)(C)C(=O)O)c4csc(N)n4)[C@H]3SC2)CCCC1)NC(=O)c1ccc(O)c(O)c1Cl`, the MIC in [1] turned out to be 0.25 µg/mL; in assay [2] it was 0.25 µg/mL; in [3] it was 1 µg/mL; in assay [4], 0.125 µg/mL; in assay [5], 2 µg/mL; in assay [6] it was 0.25 µg/mL. In addition, the MIC in assay [7] came to 0.25 µg/mL.

For the compound `CC(C)(O/N=C(\C(=O)N[C@@H]1C(=O)N2C(C(=O)[O-])=C(C[N+]34CCC(CC3)N(C(=O)c3ccc(O)c(O)c3Cl)CC4)CS[C@H]12)c1csc(N)n1)C(=O)O`, the MIC turned out to be 0.25 µg/mL in assay [1]; 0.25 µg/mL in [2]; 1 µg/mL in assay [3]; 0.125 µg/mL in assay [4]; 4 µg/mL in assay [5]; 1 µg/mL in [6]. In addition, in assay [7], the MIC was determined as 0.125 µg/mL.

In the case of `CC(C)(O/N=C(\C(=O)N[C@@H]1C(=O)N2C(C(=O)[O-])=C(C[N+]3(CCN)CCCC3)CS[C@H]12)c1csc(N)n1)C(=O)O`, the minimal inhibitory concentration (MIC) was 2 µg/mL in assay [1]; 8 µg/mL in assay [2]; 32 µg/mL in [3]; 16 µg/mL in [5]; 4 µg/mL in [6]; greater than 32 µg/mL in assay [7]. Besides, the results for the MIC in assay [8], in assay [9] and in assay [10] were 8 µg/mL, 8 µg/mL and 16 µg/mL, respectively.

Consider `CC(C)(O/N=C(\C(=O)N[C@@H]1C(=O)N2C(C(=O)[O-])=C(C[N+]3(CCCNC(=O)c4ccc(O)c(O)c4Cl)CCCC3)CS[C@H]12)c1csc(N)n1)C(=O)O`, for which the minimum inhibitory concentration (MIC) in assay [1] came to 0.5 µg/mL; in assay [2] it was 0.5 µg/mL; in [3], 1 µg/mL; in assay [4], 0.125 µg/mL; in assay [5], 1 µg/mL; in [6], 0.25 µg/mL. In addition, the MIC in [7] was 0.125 µg/mL.

Turning to `CN(CC[N+]1(CC2=C(C(=O)[O-])N3C(=O)[C@@H](NC(=O)/C(=N\OC(C)(C)C(=O)O)c4csc(N)n4)[C@H]3SC2)CCCC1)C(=O)c1ccc(O)c(O)c1Cl`, the minimal inhibitory concentration (MIC) was determined as 0.5 µg/mL in assay [1]; 0.5 µg/mL in assay [2]; 1 µg/mL in assay [3]; 0.125 µg/mL in assay [4]; 1 µg/mL in [5]; 0.5 µg/mL in assay [6]. The MIC in assay [7] turned out to be 0.25 µg/mL.

Regarding `CC(C)(O/N=C(\C(=O)N[C@@H]1C(=O)N2C(C(=O)[O-])=C(C[n+]3cc4cc(NC(=O)c5ccc(O)c(O)c5Cl)ccn4c3)CS[C@H]12)c1csc(N)n1)C(=O)O`, the MIC in assay [1] is 0.25 µg/mL; in [2] it was 2 µg/mL; in assay [3], greater than 32 µg/mL; in assay [5], greater than 32 µg/mL; in [6] it was 4 µg/mL; in assay [7], greater than 32 µg/mL. In addition, the values for the MIC in assay [8], in assay [9] and in [10] were 0.5 µg/mL, 0.25 µg/mL and 4 µg/mL, respectively.

On to `CC(C)(O/N=C(\C(=O)N[C@@H]1C(=O)N2C(C(=O)[O-])=C(C[N+]3(CCNC(=O)c4ccc(=O)n(O)c4)CCCC3)CS[C@H]12)c1csc(N)n1)C(=O)O`, for which the minimal inhibitory concentration (MIC) is 2 µg/mL in [1]; 2 µg/mL in assay [2]; 16 µg/mL in assay [3]; 8 µg/mL in assay [5]; 4 µg/mL in [6]; 4 µg/mL in assay [7]. For the same compound, the MIC in assay [8] was found to be 32 µg/mL; in assay [9] it was 2 µg/mL; in assay [10], 8 µg/mL.

In the case of `CO/N=C(\C(=O)N[C@@H]1C(=O)N2C(C(=O)[O-])=C(C[N+]3(CCNC(=O)c4ccc(O)c(O)c4Cl)CCCC3)CS[C@H]12)c1csc(N)n1`, the MIC in assay [3] is 4 µg/mL; in assay [4] it was 0.5 µg/mL; in assay [5], 32 µg/mL; in assay [7], 2 µg/mL.

On to `C[N+]1(CC2=C(C(=O)[O-])N3C(=O)[C@@H](NC(=O)/C(=N\O[C@@H](CNC(=O)c4ccc(O)c(O)c4Cl)C(=O)O)c4csc(N)n4)[C@H]3SC2)CCCC1`, for which the MIC in assay [1] stood at 0.125 µg/mL; in assay [2], 0.5 µg/mL; in [3], 8 µg/mL; in assay [5], 4 µg/mL; in assay [6], 0.5 µg/mL; in [7], 16 µg/mL. Also, the MIC in assay [8] was 1 µg/mL; in assay [9], 0.25 µg/mL; in [10], greater than 32 µg/mL.

Turning to `CC(C)(O/N=C(\C(=O)N[C@@H]1C(=O)N2C(C(=O)[O-])=C(C[N+]3(CCNC(=O)Nc4ccc(O)c(O)c4Cl)CCCC3)CS[C@H]12)c1csc(N)n1)C(=O)O`, the MIC is 1 µg/mL in assay [1]; 1 µg/mL in assay [2]; 4 µg/mL in assay [3]; 0.5 µg/mL in assay [4]; 8 µg/mL in assay [5]; 2 µg/mL in [6]. Further, in [7], the MIC was found to be 4 µg/mL.

As to `CC(C)(O/N=C(\C(=O)N[C@@H]1C(=O)N2C(C(=O)[O-])=C(C[N+]3(C)C[C@H]4C[C@@H]3CN4C(=O)c3ccc(O)c(O)c3Cl)CS[C@H]12)c1csc(N)n1)C(=O)O` (stereo partly specified), the MIC was 0.25 µg/mL in assay [1]; 0.5 µg/mL in assay [2]; 2 µg/mL in [3]; 0.25 µg/mL in assay [4]; 4 µg/mL in assay [5]; 2 µg/mL in [6]. For the same compound, the minimal inhibitory concentration (MIC) in assay [7] amounted to 0.5 µg/mL.

For the compound `C[C@@H](O)[C@H]1C(=O)N2C(C(=O)O)=C(S[C@@H]3CN[C@H](C(=O)N(C)C)C3)[C@H](C)[C@H]12` [MEROPENEM], the minimum inhibitory concentration (MIC) was no more than 0.063 µg/mL in [1], 0.125 µg/mL in [2], greater than 64 µg/mL in assay [7] and no more than 0.063 µg/mL in [10].

For `NCC[N+]1(CC2=C(C(=O)[O-])N3C(=O)[C@@H](NC(=O)/C(=N\O[C@@H](CNC(=O)c4ccc(O)c(O)c4Cl)C(=O)O)c4csc(N)n4)[C@H]3SC2)CCCC1`, the MIC in assay [1] turned out to be 0.125 µg/mL; in [2], 0.063 µg/mL; in [3], 0.5 µg/mL; in assay [5], 0.125 µg/mL; in assay [6] it was 0.063 µg/mL; in assay [7], 16 µg/mL. Moreover, the MIC turned out to be 0.5 µg/mL in [8], 0.125 µg/mL in assay [9] and 8 µg/mL in [10].

In the case of `NCC[N+]1(CC2=C(C(=O)[O-])N3C(=O)[C@@H](NC(=O)/C(=N\OC[C@H](NC(=O)c4ccc(O)c(O)c4Cl)C(=O)O)c4csc(N)n4)[C@H]3SC2)CCCC1`, the MIC in [1] was 0.125 µg/mL; in assay [2], 0.25 µg/mL; in [3], 0.25 µg/mL; in assay [5], 0.125 µg/mL; in assay [6], 0.063 µg/mL; in assay [7], greater than 32 µg/mL. Further, the MIC is 4 µg/mL in [8], 0.25 µg/mL in assay [9] and greater than 32 µg/mL in assay [10].

In the case of `CC(C)(O/N=C(\C(=O)N[C@@H]1C(=O)N2C(C(=O)[O-])=C(C[N+]3(C)CCN(C(=O)c4ccc(O)c(O)c4Cl)CC3)CS[C@H]12)c1csc(N)n1)C(=O)O`, the MIC in assay [1] turned out to be 0.125 µg/mL; in [2] it was 0.125 µg/mL; in assay [3], 4 µg/mL; in assay [5] it was 8 µg/mL; in [6], 0.25 µg/mL; in [7], 1 µg/mL. Further, the MIC amounted to 1 µg/mL in assay [8], 0.125 µg/mL in [9] and 32 µg/mL in [10].

As to `COc1c(C(=O)NCC[N+]2(CC3=C(C(=O)[O-])N4C(=O)[C@@H](NC(=O)/C(=N\OC(C)(C)C(=O)O)c5csc(N)n5)[C@H]4SC3)CCCC2)ccc(O)c1O`, the MIC in assay [1] worked out at 0.125 µg/mL; in assay [2] it was 0.125 µg/mL; in [3] it was 4 µg/mL; in assay [5], 4 µg/mL; in [6], 2 µg/mL; in assay [7], 2 µg/mL. Also, the minimum inhibitory concentration (MIC) in assay [8] turned out to be 1 µg/mL; in assay [9], 0.25 µg/mL; in [10] it was 8 µg/mL.

What is called MIC is the smallest concentration in the dilution series that meets the test's criterion for growth inhibition.

The values are drawn from ChEMBL document CHEMBL4152326 (2018).
